pIC50: −log10 of the molar value. Counter-ions that a name gives are not always drawn.

Chain of histidine-tagged recombinant human TrkA, cytoplasmic domain (P04629 440-796): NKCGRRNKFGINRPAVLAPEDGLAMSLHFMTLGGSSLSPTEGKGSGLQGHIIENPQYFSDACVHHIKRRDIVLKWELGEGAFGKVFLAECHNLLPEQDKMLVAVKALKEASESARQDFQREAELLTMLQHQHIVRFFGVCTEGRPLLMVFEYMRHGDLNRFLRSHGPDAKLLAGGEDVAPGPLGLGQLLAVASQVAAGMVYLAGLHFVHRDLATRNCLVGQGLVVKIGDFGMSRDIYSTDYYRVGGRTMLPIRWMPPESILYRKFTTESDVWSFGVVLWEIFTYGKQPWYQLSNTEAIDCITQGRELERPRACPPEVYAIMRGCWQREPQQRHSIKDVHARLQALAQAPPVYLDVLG

The target of the assay is histidine-tagged recombinant human TrkA, cytoplasmic domain (Homo sapiens (Human), UniProt P04629). Put plainly: TrkA ELISA Assay. The settings on record: 2.5 nM TrkA, 500 μM ATP, 25 minutes; read-out: TrkA Elisa Enzyme IC50. The assay is classed as biochemical. The procedure:
An enzyme-linked immunosorbant assay (ELISA) was used to assess TrkA kinase activity in the presence of inhibitors. Immulon 4HBX 384-well microtiter plates (Thermo part #8755) were coated with a 0.025 mg/mL solution of poly (Glu, Ala, Tyr; 6:3:1; Sigma P3899). Various concentrations of test compound, 2.5 nM TrkA (Invitrogen Corp., histidine-tagged recombinant human TrkA, cytoplasmic domain), and 500 μM ATP were incubated for 25 minutes at ambient temperature in the coated plates while shaking. The assay buffer consisted of 25 mM MOPS pH 7.5, 0.005% (v/v) Triton X-100 and 5 mM MgCl2. The reaction mixture was removed from the plate by washing with PBS containing 0.1% (v/v) Tween 20. The phosphorylated reaction product was detected using 0.2 μg/mL of a phosphotyrosine specific monoclonal antibody (clone PY20) conjugated to horseradish peroxidase in conjunction with the TMB Peroxidase Substrate System (KPL). After the addition of 1M phosphoric acid, the chromogenic substrate color intensity was quantitated via absorbance at 450 nm. IC50 values were calculated using either a 4 or 5-parameter logistic curve fit.
On the technique in general: In an ELISA, binding on a coated surface is turned into a signal by an enzyme label.
`O=C(Nc1cnn2ccc(N3CCC[C@@H]3c3cc(F)ccc3F)nc12)N1CC(O)C1` [Example 1, (R)—N-(5-(2-(2,5-difluorophenyl)pyrrolidin-1-yl)pyrazolo[1,5-a]pyrimidin-3-yl)-3-hydroxyazetidine-1-carboxamide]: the pIC50 (usually the negative decadic logarithm of the IC50, by convention in mol/L) was 7.68.

Consider `CN(C)C(=O)Nc1cnn2ccc(N3CCC[C@@H]3c3cc(F)ccc3F)nc12` [Example 2, (R)-3-(5-(2-(2,5-difluorophenyl)pyrrolidin-1-yl)pyrazolo[1,5-a]pyrimidin-3-yl)-1,1-dimethylurea], for which the pIC50 was 7.80.

As for `CC(C)(C)NC(=O)Nc1cnn2ccc(N3CCC[C@@H]3c3cc(F)ccc3F)nc12` [Example 3, (R)-1-tert-butyl-3-(5-(2-(2,5-difluorophenyl)pyrrolidin-1-yl)pyrazolo[1,5-a]pyrimidin-3-yl)urea], the pIC50 was 7.65.

For `O=C(Nc1ccccc1)Nc1cnn2ccc(N3CCC[C@@H]3c3cc(F)ccc3F)nc12` [Example 4, (R)-1-(5-(2-(2,5-difluorophenyl)pyrrolidin-1-yl)pyrazolo[1,5-a]pyrimidin-3-yl)-3-phenylurea], the pIC50 was 8.30.

Consider `CC(C)C(=O)Nc1cnn2ccc(N3CCC[C@@H]3c3cc(F)ccc3F)nc12` [Example 5, (R)—N-(5-(2-(2,5-difluorophenyl)pyrrolidin-1-yl)pyrazolo[1,5-a]pyrimidin-3-yl)isobutyramide], for which the pIC50 was 7.92.

For the molecule `Cn1nc(C(=O)Nc2cnn3ccc(N4CCC[C@@H]4c4cccc(F)c4)nc23)ccc1=O` [Example 6, (R)—N-(5-(2-(3-fluorophenyl)pyrrolidin-1-yl)pyrazolo[1,5-a]pyrimidin-3-yl)-1-methyl-6-oxo-1,6-dihydropyridazine-3-carboxamide], the pIC50 is 7.72.

`O=C(Nc1cnn2ccc(N3CC(F)(F)C[C@@H]3c3cccc(F)c3)nc12)N1CC(O)C1` [Example 7, (R)—N-(5-(4,4-difluoro-2-(3-fluorophenyl)pyrrolidin-1-yl)pyrazolo[1,5-a]pyrimidin-3-yl)-3-hydroxyazetidine-1-carboxamide]: the negative-log IC50 (pIC50) is 7.11.

Turning to `O=C(Nc1cnn2ccc(N3CCC[C@@H]3c3cc(F)ccc3Cl)nc12)N1CC(O)C1` [Example 8, (R)—N-(5-(2-(2-chloro-5-fluorophenyl)pyrrolidin-1-yl)pyrazolo[1,5-a]pyrimidin-3-yl)-3-hydroxyazetidine-1-carboxamide], the negative-log IC50 (pIC50) was 7.86.

In the case of `O=C(Nc1cnn2ccc(N3CCC[C@@H]3c3cccc(F)c3)nc12)N1CCOCC1` [Example 9, (R)—N-(5-(2-(3-fluorophenyl)pyrrolidin-1-yl)pyrazolo[1,5-a]pyrimidin-3-yl)morpholine-4-carboxamide], the pIC50 was 6.09.

Regarding `CC1(c2cccc(F)c2)CCCN1c1ccn2ncc(NC(=O)N3CC(O)C3)c2n1` (stereo not drawn) [Example 10, N-(5-(2-(3-fluorophenyl)-2-methylpyrrolidin-1-yl)pyrazolo[1,5-a]pyrimidin-3-yl)-3-hydroxyazetidine-1-carboxamide], the pIC50 was 6.73.

On to `O=C(Nc1cnn2ccc(N3CCC[C@@H]3c3cc(F)cc(Cl)c3)nc12)N1CC(O)C1` [Example 11, (R)—N-(5-(2-(3-chloro-5-fluorophenyl)pyrrolidin-1-yl)pyrazolo[1,5-a]pyrimidin-3-yl)-3-hydroxyazetidine-1-carboxamide], for which the pIC50 was 6.77.

On to `O=C(Nc1cnn2ccc(N3CCC[C@@H]3c3cc(F)ccc3C(F)F)nc12)N1CC(O)C1` [Example 12, (R)—N-(5-(2-(2-(difluoromethyl)-5-fluorophenyl)pyrrolidin-1-yl)pyrazolo[1,5-a]pyrimidin-3-yl)-3-hydroxyazetidine-1-carboxamide], for which the pIC50 is 7.58.

Take `O=C(Nc1cnn2ccc(N3CCC[C@@H]3c3cc(F)ccc3F)nc12)N1CCOCC1` [Example 13, (R)—N-(5-(2-(2,5-difluorophenyl)pyrrolidin-1-yl)pyrazolo[1,5-a]pyrimidin-3-yl)morpholine-4-carboxamide]: the pIC50 is 7.49.

`O=C(Nc1cnn2ccc(N3CCC[C@@H]3c3cc(F)ccc3F)nc12)N1C[C@@H](O)[C@H](O)C1` [Example 15, (3R,4R)—N-(5-((R)-2-(2,5-difluorophenyl)pyrrolidin-1-yl)pyrazolo[1,5-a]pyrimidin-3-yl)-3,4-dihydroxypyrrolidine-1-carboxamide]: the pIC50 was 7.88.

Turning to `COC1CN(C(=O)Nc2cnn3ccc(N4CCC[C@@H]4c4cc(F)ccc4F)nc23)C1` [Example 16, (R)—N-(5-(2-(2,5-difluorophenyl)pyrrolidin-1-yl)pyrazolo[1,5-a]pyrimidin-3-yl)-3-methoxyazetidine-1-carboxamide], the pIC50 was 7.56.

Regarding `CC1(O)CN(C(=O)Nc2cnn3ccc(N4CCC[C@@H]4c4cc(F)ccc4F)nc23)C1` [Example 17, (R)—N-(5-(2-(2,5-difluorophenyl)pyrrolidin-1-yl)pyrazolo[1,5-a]pyrimidin-3-yl)-3-hydroxy-3-methylazetidine-1-carboxamide], the pIC50 is 7.71.

Consider `O=C(Nc1ccc(F)cc1)Nc1cnn2ccc(N3CCC[C@@H]3c3cc(F)ccc3F)nc12` [Example 18, (R)-1-(5-(2-(2,5-difluorophenyl)pyrrolidin-1-yl)pyrazolo[1,5-a]pyrimidin-3-yl)-3-(4-fluorophenyl)urea], for which the pIC50 was 8.34.

Take `O=C(Nc1ccc(Cl)cc1)Nc1cnn2ccc(N3CCC[C@@H]3c3cc(F)ccc3F)nc12` [Example 19, (R)-1-(4-chlorophenyl)-3-(5-(2-(2,5-difluorophenyl)pyrrolidin-1-yl)pyrazolo[1,5-a]pyrimidin-3-yl)urea]: the pIC50 is 8.00.

For the molecule `COc1ccc(NC(=O)Nc2cnn3ccc(N4CCC[C@@H]4c4cc(F)ccc4F)nc23)cc1` [Example 20, (R)-1-(5-(2-(2,5-difluorophenyl)pyrrolidin-1-yl)pyrazolo[1,5-a]pyrimidin-3-yl)-3-(4-methoxyphenyl)urea], the pIC50 is 8.32.

In the case of `COC1CN(C(=O)Nc2cnn3ccc(N4CCC[C@@H]4c4cc(F)ccc4Cl)nc23)C1` [Example 21, (R)—N-(5-(2-(2-chloro-5-fluorophenyl)pyrrolidin-1-yl)pyrazolo[1,5-a]pyrimidin-3-yl)-3-methoxyazetidine-1-carboxamide], the negative logarithm of the IC50 (pIC50) is 7.55.

As to `CC1(O)CN(C(=O)Nc2cnn3ccc(N4CCC[C@@H]4c4cc(F)ccc4Cl)nc23)C1` [Example 22, (R)—N-(5-(2-(2-chloro-5-fluorophenyl)pyrrolidin-1-yl)pyrazolo[1,5-a]pyrimidin-3-yl)-3-hydroxy-3-methylazetidine-1-carboxamide], the pIC50 was 7.94.

In the case of `O=C(Nc1cnn2ccc(N3CCC[C@@H]3c3cc(F)ccc3Cl)nc12)N1CCOCC1` [Example 23, (R)—N-(5-(2-(2-chloro-5-fluorophenyl)pyrrolidin-1-yl)pyrazolo[1,5-a]pyrimidin-3-yl)morpholine-4-carboxamide], the negative logarithm of the IC50 (pIC50) is 7.38.

Consider `C[C@H]1CN(C(=O)Nc2cnn3ccc(N4CCC[C@@H]4c4cc(F)ccc4Cl)nc23)CCN1C(=O)OC(C)(C)C` [Example 24, (S)-tert-butyl 4-(5-((R)-2-(2-chloro-5-fluorophenyl)pyrrolidin-1-yl)pyrazolo[1,5-a]pyrimidin-3-ylcarbamoyl)-2-methylpiperazine-1-carboxylate], for which the pIC50 is 7.26.

As to `C[C@H]1CN(C(=O)Nc2cnn3ccc(N4CCC[C@@H]4c4cc(F)ccc4Cl)nc23)CCN1` [Example 25, (S)—N-(5-((R)-2-(2-chloro-5-fluorophenyl)pyrrolidin-1-yl)pyrazolo[1,5-a]pyrimidin-3-yl)-3-methylpiperazine-1-carboxamide hydrochloride], the pIC50 was 7.08.

For the molecule `CC(C)N1CCN(C(=O)Nc2cnn3ccc(N4CCC[C@@H]4c4cc(F)ccc4F)nc23)CC1` [Example 26, (R)—N-(5-(2-(2,5-difluorophenyl)pyrrolidin-1-yl)pyrazolo[1,5-a]pyrimidin-3-yl)-4-isopropylpiperazine-1-carboxamide], the pIC50 was 7.35.

With `CCN1CCN(C(=O)Nc2cnn3ccc(N4CCC[C@@H]4c4cc(F)ccc4F)nc23)CC1` [Example 27, (R)—N-(5-(2-(2,5-difluorophenyl)pyrrolidin-1-yl)pyrazolo[1,5-a]pyrimidin-3-yl)-4-ethylpiperazine-1-carboxamide], the pIC50 is 6.97.

`CN1CCN(C(=O)Nc2cnn3ccc(N4CCC[C@@H]4c4cc(F)ccc4F)nc23)CC1` [Example 28, (R)—N-(5-(2-(2,5-difluorophenyl)pyrrolidin-1-yl)pyrazolo[1,5-a]pyrimidin-3-yl)-4-methylpiperazine-1-carboxamide]: the negative logarithm of the IC50 (pIC50) is 7.24.

For the molecule `CC1CN(C(=O)Nc2cnn3ccc(N4CCC[C@@H]4c4cc(F)ccc4F)nc23)CC(C)N1` (stereo partly drawn) [Example 29], the pIC50 is 7.01.

With `C[C@H]1CN(C(=O)Nc2cnn3ccc(N4CCC[C@@H]4c4cc(F)ccc4F)nc23)CCN1C(=O)OC(C)(C)C` [Example 30, (S)-tert-butyl 4-(5-((R)-2-(2,5-difluorophenyl)pyrrolidin-1-yl)pyrazolo[1,5-a]pyrimidin-3-ylcarbamoyl)-2-methylpiperazine-1-carboxylate], the pIC50 was 6.81.

Turning to `C[C@H]1CN(C(=O)Nc2cnn3ccc(N4CCC[C@@H]4c4cc(F)ccc4F)nc23)CCN1` [Example 31, (S)—N-(5-((R)-2-(2,5-difluorophenyl)pyrrolidin-1-yl)pyrazolo[1,5-a]pyrimidin-3-yl)-3-methylpiperazine-1-carboxamide hydrochloride], the pIC50 is 7.05.

The values above are taken from patent US8865698B2, “Method of treatment using substituted pyrazolo[1,5-a]pyrimidine compounds” (Array BioPharma Inc., priority 2008, dated 2014).
